Counter-ions that a name gives are not always drawn.

Among the data in patent publication US7550485B2, “Substituted N-heterocycle derivatives and methods of their use” (Wyeth, priority 2003, dated 2009) are inhibition and EC50 values, retold here.

For this assay, the target named is T1, hNET (Homo sapiens, UniProt P23975).
T1 construct: expressed in transfected cells
Description: Norepinephrine (NE) uptake assay in MDCK-Net6 cells stably transfected with human hNET. The format is cell-based. As to conditions: [3H]NE uptake; for inhibition at 1 µM: MDCK-Net6, 1 μM test compound; for EC50: test range 1 to 10,000 nM. As to the method: MDCK-Net6 cells, stably transfected with human hNET (Pacholczyk, T., R. D. Blakely, and S. G. Amara, Nature, 1991, 350(6316): p. 350-4) were cultured in growth medium containing high glucose DMEM (Gibco, Cat. No. 11995), 10% FBS (dialyzed, heat-inactivated, US Bio-Technologies, Lot FBD1129HI) and 500 μg/ml G418 (Gibco, Cat. No. 10131). Cells were plated at 300,000/T75 flask and cells were split twice weekly. The JAR cell line (human placental choriocarcinoma) was purchased from ATCC (Cat. No. HTB-144). The cells were cultured in growth medium containing RPMI 1640 (Gibco, Cat. No. 72400), 10% FBS (Irvine, Cat. No. 3000), 1% sodium pyruvate (Gibco, Cat. No. 1136) and 0.25% glucose. Cells were plated at 250,000 cells/T75 flask and split twice weekly. For all assays, cells were plated in Wallac 96-well sterile plates (PerkinElmer, Cat. No. 3983498).
Norepinephrine (NE) Uptake Assay
On day 1, cells were plated at 3,000 cells/well in growth medium and maintained in a cell incubator (37° C., 5% CO2). On day 2, growth medium was replaced with 200 μl of assay buffer (25 mM HEPES; 120 mM NaCl; 5 mM KCl; 2.5 mM CaCl2; 1.2 mM MgSO4; 2 mg/ml glucose (pH 7.4, 37° C.)) containing 0.2 mg/ml ascorbic acid and 10 μM pargyline. Plates containing cells with […] of assay buffer were equilibrated for 10 minutes at 37° C. prior to addition of compounds. A stock solution of desipramine was prepared in DMSO (10 mM) and delivered to triplicate wells containing cells for a final test concentration of 1 μM. Data from these wells were used to define non-specific NE uptake (minimum NE uptake). Test compounds were prepared in DMSO (10 mM) and diluted in assay buffer according to test range (1 to 10,000 nM). Twenty-five microliters of assay buffer (maximum NE uptake) or test compound were added directly to triplicate wells containing cells in 200 μl of assay buffer. The cells in assay buffer with test compounds were incubated for 20 minutes at 37° C. To initiate the NE uptake, [^3H]NE diluted in assay buffer (120 nM final assay concentration) was delivered in 25 μl aliquots to each well and the plates were incubated for 5 minutes (37° C.). The reaction was terminated by decanting the supernatant from the plate. The plates containing cells were washed twice with 200 μl assay buffer (37° C.) to remove free radioligand. The plates were then inverted, left to dry for 2 minutes, then reinverted and air-dried for an additional 10 minutes. The cells were lysed in 25 μl of 0.25 N NaOH solution (4° C.), placed on a shake table and vigorously shaken for 5 minutes. After cell lysis, 75 μl of scintillation cocktail was added to each well and the plates were sealed with film tape. The plates were returned to the shake table and vigorously shaken for a minimum of 10 minutes to ensure adequate partitioning of organic and aqueous solutions. The plates were counted in a Wallac Microbeta counter (PerkinElmer) to collect the raw cpm data.
For each experiment, a data stream of cpm values collected from the Wallac Microbeta counter was downloaded to a Microsoft Excel statistical application program. Calculations of EC50 values were made using the transformed-both-sides logistic dose response program written by Wyeth Biometrics Department. The statistical program uses mean cpm values from wells representing maximum binding or uptake (assay buffer) and mean cpm values from wells representing minimum binding or uptake ((1 μM desipramine (hNET) or 1 μM paroxetine (hSERT)). Estimation of the EC50 value was completed on a log scale and the line was fit between the maximum and minimum binding or uptake values. All graphic data representation was generated by normalizing each data point to a mean percent based on the maximum and minimum binding or uptake values. The EC50 values reported from multiple experiments were calculated by pooling the raw data from each experiment and analyzing the pooled data as one experiment.

T1 sequence (P23975 whole entry): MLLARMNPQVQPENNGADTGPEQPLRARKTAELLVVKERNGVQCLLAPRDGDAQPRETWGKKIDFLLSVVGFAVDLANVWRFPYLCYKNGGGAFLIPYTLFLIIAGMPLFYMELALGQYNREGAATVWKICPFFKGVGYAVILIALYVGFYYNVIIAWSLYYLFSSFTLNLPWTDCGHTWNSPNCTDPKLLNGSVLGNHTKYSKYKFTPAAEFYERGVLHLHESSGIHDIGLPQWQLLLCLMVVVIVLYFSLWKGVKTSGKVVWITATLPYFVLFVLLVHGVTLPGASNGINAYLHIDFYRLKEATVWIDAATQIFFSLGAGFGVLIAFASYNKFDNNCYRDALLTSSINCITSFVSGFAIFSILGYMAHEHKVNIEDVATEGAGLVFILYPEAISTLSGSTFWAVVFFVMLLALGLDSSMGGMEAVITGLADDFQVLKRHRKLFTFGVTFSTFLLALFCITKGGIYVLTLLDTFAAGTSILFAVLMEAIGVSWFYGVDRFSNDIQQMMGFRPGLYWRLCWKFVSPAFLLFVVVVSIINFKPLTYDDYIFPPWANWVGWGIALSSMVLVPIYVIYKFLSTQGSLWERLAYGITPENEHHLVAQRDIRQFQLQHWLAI

As for `N[C@H]1CCN(CC(c2ccc(OCc3ccccc3)cc2)C2(O)CCCCC2)C1` (stereo partly drawn) [Example 213, 1-{2-[(3S)-3-aminopyrrolidin-1-yl]-1-[4 (benzyloxy)phenyl]ethyl}cyclohexanol dihydrochloride], the inhibition (usually the drop in the measured response relative to a control, in per cent) at 1 µM came out at 84.5%.

Take `CN(C)C1CCN(CC(c2ccc(OCc3ccc4ccccc4c3)c(Cl)c2)C2(O)CCCCC2)CC1` (stereo not drawn) [Example 431, 1-{1-[3-chloro-4-(2-naphthylmethoxyl)phenyl]-2-[4-(dimethylamino)piperidin-1-yl]ethyl}cyclohexanol dihydrochloride]: the inhibition at 1 µM came out at 79% and the concentration giving a half-maximal response (EC50) (as a rule, the concentration at which the effect is half-maximal) came out at 54 nM.

In the case of `OC1(C(CN2CCC(N3CCCC3)CC2)c2cccc(C(F)(F)F)c2)CCCCC1` (stereo not drawn) [Example 26, 1-{2-(4-pyrrolidin-1-ylpiperidin-1-yl)-1-[3-(trifluoromethyl)phenyl]ethyl}cyclohexanol dihydrochloride], the inhibition at 1 µM came to 84% and the concentration giving a half-maximal response (EC50) is 200 nM.

For the molecule `CNC1CCN(CC(c2cccc(Cl)c2)C2CCCCC2)CC1` (stereo not drawn) [Example 232, 1-[2-(3-chlorophenyl)-2-cyclohexylethyl]-N-methylpiperidin-4-amine dihydrochloride], the inhibition at 1 µM was determined as 79.1%.

In turn, `CN(C)[C@H]1CCN(CC(c2ccc(OCc3ccccc3)cc2)C2(O)CCCCC2)C1` (stereo partly drawn) [Example 214, 1-{1-[4-(benzyloxy)phenyl]-2-[(3S)-3-(dimethylamino)pyrrolidin-1-yl]ethyl}cyclohexanol dihydrochloride] registered an inhibition at 1 µM of 65%.

As for `COC1CCN(CC(c2ccc(OCc3ccccc3)c(Cl)c2)C2(O)CCCCC2)CC1` (stereo not drawn) [Example 242, 1-[1-[4-(benzyloxy)-3-chlorophenyl]-2-(4-methoxypiperidin-1-yl)ethyl]cyclohexanol hydrochloride], the inhibition at 1 µM stood at 2%.

As for `CN(C)[C@@H]1CCN(CC(c2cccc3ccccc23)C2(O)CCCCC2)C1` (stereo partly drawn) [Example 378, 1-[2-[(3R)-3-(dimethylamino)pyrrolidin-1-yl]-1-(1-naphthyl)ethyl]cyclohexanol dihydrochloride], testing at 1 µM gave an inhibition of 28%.

As for `NC1CCN(CC(c2ccc3ccccc3c2)C2(O)CCCCC2)CC1` (stereo not drawn) [Example 32, 1-[2-(4-aminopiperidin-1-yl)-1-(2-naphthyl)ethyl]cyclohexanol dihydrochloride], 1 µM produced 69% inhibition and the response was half-maximal at 170 nM (EC50).

`COc1ccc2cc(C(CN3CCC(N4CCCC4)CC3)C3(O)CCCCC3)ccc2c1` (stereo not drawn) [Example 345, 1-[1-(6-methoxy-2-naphthyl)-2-(4-pyrrolidin-1-ylpiperidin-1-yl)ethyl]cyclohexanol dihydrochloride] returned an inhibition at 1 µM of 65% and a half-maximal effective concentration (EC50) of 530 nM.

In the case of `CNC1CCN(CC(c2cccc(Cl)c2)C2CCCCCC2)CC1` (stereo not drawn) [Example 236, 1-[2-(3-chlorophenyl)-2-cycloheptylethyl]-N-methylpiperidin-4-amine dihydrochloride], the inhibition at 1 µM amounted to 49.7%.

Consider `CNC1CCN(CC(c2ccc3cc(OC)ccc3c2)C2(O)CCCCC2)CC1` (stereo not drawn) [Example 344, 1-{1-(6-methoxy-2-naphthyl)-2-[4-(methylamino)piperidin-1-yl]ethyl}cyclohexanol dihydrochloride], for which the inhibition at 1 µM turned out to be 52%.

With `N[C@@H]1CCCN(CC(c2cccc(OC(F)(F)F)c2)C2(O)CCCCC2)C1` (stereo partly drawn) [Example 187, 1-[2-{(3R)-3-aminopiperidin-1-yl]-1-[3-(trifluoromethoxy)phenyl]ethyl}cyclohexanol dihydrochloride], at 1 µM the inhibition was 62.3%.

`NC1CCN(CC(c2cccc(Cl)c2)C2CCCCC2O)CC1` (stereo not drawn) [Example 239, 2-[2-(4-aminopiperidin-1-yl)-1-(3-chlorophenyl)ethyl]cyclohexanol dihydrochloride] gave an inhibition at 1 µM of 81.8%.

`CN(C)[C@H]1CCN(CC(c2ccc(OCc3ccccc3)c(Cl)c2)C2(O)CCCCC2)C1` (stereo partly drawn) [Example 211, 1-{1-[4-(benzyloxy)-3-chlorophenyl]-2-[(3S)-3-(dimethylamino)pyrrolidin-1-yl]ethyl}cyclohexanol dihydrochloride] came in with an inhibition at 1 µM of 95.6%.

For the molecule `CNC1CCN(CC(c2cccc(C(F)(F)F)c2)C2(O)CCCCC2)CC1` (stereo not drawn) [Example 30, 1-{2-[4-(methylamino)piperidin-1-yl]-1-[3-(trifluoromethyl)phenyl]ethyl}cyclohexanol dihydrochloride], at 1 µM the inhibition was 79% and the response was half-maximal at 530 nM (EC50).

`CNC1CCN(CC(c2cccc(Cl)c2)C2(O)CCCCC2)CC1` (stereo not drawn) [Example 17, 1-{1-(3-chlorophenyl)-2-[4-(methylamino)piperidin-1-yl]ethyl}cyclohexanol dihydrochloride]: 1 µM produced 88% inhibition and a half-maximal effect (EC50) was put at 91 nM.

In the case of `N[C@H]1CCN(CC(c2cccc3ccccc23)C2(O)CCCCC2)C1` (stereo partly drawn) [Example 207, 1-[2-[(3S)-3-aminopyrrolidin-1-yl]-1-(1-naphthyl)ethyl]cyclohexanol dihydrochloride], 1 µM produced 65.7% inhibition.

Take `CN[C@@H]1CCN(CC(c2cccc(Cl)c2)C2(O)CCCCC2)C1` (stereo partly drawn) [Example 200, 1-{1-(3-chlorophenyl)-2-[(3R)-3-(methylamino)pyrrolidin-1-yl]ethyl}cyclohexanol dihydrochloride]: testing at 1 µM gave an inhibition of 54.1%.

As for `CN(C)C1CCN(CC(c2ccc(Cl)c(Cl)c2)C2(O)CCCCC2)CC1` (stereo not drawn) [Example 320, 1-{1-(3,4-dichlorophenyl)-2-[4-(dimethylamino)piperidin-1-yl]ethyl}cyclohexanol dihydrochloride], the inhibition at 1 µM is 88.1%.

In turn, `N[C@H]1CCN(CC(c2ccc3ccccc3c2)C2(O)CCCCC2)C1` (stereo partly drawn) [Example 204, 1-[2-[(3S)-3-aminopyrrolidin-1-yl]-1-(2-naphthyl)ethyl]cyclohexanol dihydrochloride] had an inhibition at 1 µM of 70.4%.

The molecule `N[C@@H]1CCN(CC(c2ccc3ccccc3c2)C2(O)CCCCC2)C1` (stereo partly drawn) [Example 374, 1-[2-[(3R)-3-aminopyrrolidin-1-yl]-1-(2-naphthyl)ethyl]cyclohexanol dihydrochloride] had an inhibition at 1 µM of 46%.

`CN[C@@H]1CCN(CC(c2cccc3ccccc23)C2(O)CCCCC2)C1` (stereo partly drawn) [Example 379, 1-[2-[(3R)-3-(methylamino)pyrrolidin-1-yl]-1-(1-naphthyl)ethyl]cyclohexanol dihydrochloride] registered an inhibition at 1 µM of 19%.

Consider `CN[C@@H]1CCCN(CC(c2cccc(OC(F)(F)F)c2)C2(O)CCCCC2)C1` (stereo partly drawn) [Example 186, 1-[2-{(3R)-3-(methylamino)piperidin-1-yl]-1-[3-(trifluoromethoxy)phenyl]ethyl}cyclohexanol dihydrochloride], for which testing at 1 µM gave an inhibition of 50.4%.

`CN(C)[C@@H]1CCN(CC(c2ccc(OCc3ccccc3)c(Cl)c2)C2(O)CCCCC2)C1` (stereo partly drawn) [Example 384, 1-{1-[4-(benzyloxy)-3-chlorophenyl]-2-[(3R)-3-(dimethylamino)pyrrolidin-1-yl]ethyl}cyclohexanol dihydrochloride] registered an inhibition at 1 µM of 88% and an EC50 of 450 nM.

With `OC1(C(CN2CCC(N3CCCCC3)CC2)c2ccc(OCCc3ccccc3)cc2)CCCCC1` (stereo not drawn) [Example 461, 1-{2-(1,4′-bipiperidin-1′-yl)-1-[4-(2-phenylethoxy)phenyl]ethyl}cyclohexanol dihydrochloride], the inhibition at 1 µM came to 17%.

`CN(C)[C@@H]1CCN(CC(c2ccc3ccccc3c2)C2(O)CCCCC2)C1` (stereo partly drawn) [Example 375, 1-[2-[(3R)-3-(dimethylamino)pyrrolidin-1-yl]-1-(2-naphthyl)ethyl]cyclohexanol dihydrochloride] yielded an inhibition at 1 µM of 39%.
